Assay results from PubChem BioAssay AID2060882 (Molecular Pharmacology Branch, DTP, NCI, 2025).
Blank lines part the entries; values can stand above or below the compound they belong to.

Tested on: 898857-211-R-J1-PDC complex spheroids, growth % test/control
Assay: Anticancer human tumor 898857-211-R-J1-PDC patient-derived melanoma cell line growth inhibition [RAS]
Details: for IC50: curve of first compound; for viability, T/C: stronger effect = lower value
Outline: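 Tumour cells grown as complex spheroids with HUVEC endothelial cells and mesenchymal stem cells, treated with RAS pathway inhibitor combinations. Each agent spans half-log steps from near clinical Cmax, or 10 microM where Cmax is unknown.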

[1] = second compound 0.00316 µM, first compound 0.00316 µM
[2] = second compound 0.00316 µM, first compound 0.01 µM
[3] = second compound 0.00316 µM, first compound 0.0316 µM
[4] = second compound 0.00316 µM, first compound 0.1 µM
[5] = second compound 0.00316 µM, first compound 0.316 µM
[6] = second compound 0.00316 µM, first compound 1 µM
[7] = second compound 0.01 µM, first compound 0.00316 µM
[8] = second compound 0.01 µM, first compound 0.01 µM
[9] = second compound 0.01 µM, first compound 0.0316 µM
[10] = second compound 0.01 µM, first compound 0.1 µM
[11] = second compound 0.01 µM, first compound 0.316 µM
[12] = second compound 0.01 µM, first compound 1 µM
[13] = second compound 0.0316 µM, first compound 0.00316 µM
[14] = second compound 0.0316 µM, first compound 0.01 µM
[15] = second compound 0.0316 µM, first compound 0.0316 µM
[16] = second compound 0.0316 µM, first compound 0.1 µM
[17] = second compound 0.0316 µM, first compound 0.316 µM
[18] = second compound 0.0316 µM, first compound 1 µM
[19] = second compound 0.1 µM, first compound 0.00316 µM
[20] = second compound 0.1 µM, first compound 0.01 µM
[21] = second compound 0.1 µM, first compound 0.0316 µM
[22] = second compound 0.1 µM, first compound 0.1 µM
[23] = second compound 0.1 µM, first compound 0.316 µM
[24] = second compound 0.1 µM, first compound 1 µM
[25] = second compound 0.316 µM, first compound 0.00316 µM
[26] = second compound 0.316 µM, first compound 0.01 µM
[27] = second compound 0.316 µM, first compound 0.0316 µM
[28] = second compound 0.316 µM, first compound 0.1 µM
[29] = second compound 0.316 µM, first compound 0.316 µM
[30] = second compound 0.316 µM, first compound 1 µM
[31] = second compound 1 µM, first compound 0.00316 µM
[32] = second compound 1 µM, first compound 0.01 µM
[33] = second compound 1 µM, first compound 0.0316 µM
[34] = second compound 1 µM, first compound 0.1 µM
[35] = second compound 1 µM, first compound 0.316 µM
[36] = second compound 1 µM, first compound 1 µM
[37] = second compound 0.00316 µM, first compound 3.16 µM
[38] = second compound 0.00316 µM, first compound 10 µM
[39] = second compound 0.01 µM, first compound 3.16 µM
[40] = second compound 0.01 µM, first compound 10 µM
[41] = second compound 0.0316 µM, first compound 3.16 µM
[42] = second compound 0.0316 µM, first compound 10 µM
[43] = second compound 0.1 µM, first compound 3.16 µM
[44] = second compound 0.1 µM, first compound 10 µM
[45] = second compound 0.316 µM, first compound 3.16 µM
[46] = second compound 0.316 µM, first compound 10 µM
[47] = second compound 1 µM, first compound 3.16 µM
[48] = second compound 1 µM, first compound 10 µM
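Note: spheroids exposed to compound for seven days before readout.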
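Throughout, for viability, T/C: 100% = DMSO vehicle control wells.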

IC50 (second compound 0.00316 µM): > 10000 nM
IC50 (second compound 0.01 µM): > 10000 nM
IC50 (second compound 0.0316 µM): > 10000 nM
IC50 (second compound 0.1 µM): > 10000 nM
IC50 (second compound 0.316 µM): > 10000 nM
IC50 (second compound 1 µM): > 10000 nM
SMILES: CC(C)NCC(C(=O)N1CCN(c2ncnc3c2C(C)CC3O)CC1)c1ccc(Cl)cc1 (stereo not given) + C=CC(=O)N1CCN(c2nc(OCC3CCCN3C)nc3c(F)c(-c4nc(N)cc(C)c4C(F)(F)F)c(Cl)cc23)C(C)C1
viability, T/C [3]: 108%
viability, T/C [4]: 99.8%
viability, T/C [5]: 97.5%
viability, T/C [6]: 89.2%
viability, T/C [37]: 81.2%
viability, T/C [38]: 70.1%
viability, T/C [9]: 101%
viability, T/C [10]: 104%
viability, T/C [11]: 104%
viability, T/C [12]: 85.8%
viability, T/C [39]: 85.9%
viability, T/C [40]: 70.7%
viability, T/C [15]: 111%
viability, T/C [16]: 101%
viability, T/C [17]: 114%
viability, T/C [18]: 103%
viability, T/C [41]: 78.9%
viability, T/C [42]: 60.8%
viability, T/C [21]: 118%
viability, T/C [22]: 110%
viability, T/C [23]: 102%
viability, T/C [24]: 88.8%
viability, T/C [43]: 91.8%
viability, T/C [44]: 66.7%
viability, T/C [27]: 114%
viability, T/C [28]: 129%
viability, T/C [29]: 126%
viability, T/C [30]: 112%
viability, T/C [45]: 93.3%
viability, T/C [46]: 71.4%
viability, T/C [33]: 116%
viability, T/C [34]: 121%
viability, T/C [35]: 117%
viability, T/C [36]: 112%
viability, T/C [47]: 97.5%
viability, T/C [48]: 70.4%

IC50 (second compound 0.00316 µM): 28.8 nM
IC50 (second compound 0.01 µM): 33.6 nM
IC50 (second compound 0.0316 µM): 26.9 nM
IC50 (second compound 0.1 µM): 35 nM
IC50 (second compound 0.316 µM): 34.5 nM
IC50 (second compound 1 µM): 37.9 nM
SMILES: CC(C)n1nc(-c2ccc3oc(N)nc3c2)c2c(N)ncnc21 + C=CC(=O)N1CCN(c2nc(OCC3CCCN3C)nc3c(F)c(-c4nc(N)cc(C)c4C(F)(F)F)c(Cl)cc23)C(C)C1
viability, T/C (second compound 0.00316 µM, first compound 0.000316 µM): 103%
viability, T/C (second compound 0.00316 µM, first compound 0.001 µM): 96.3%
viability, T/C [1]: 99.6%
viability, T/C [2]: 75.9%
viability, T/C [3]: 48.5%
viability, T/C [4]: 19.9%
viability, T/C (second compound 0.01 µM, first compound 0.000316 µM): 107%
viability, T/C (second compound 0.01 µM, first compound 0.001 µM): 95.1%
viability, T/C [7]: 92.1%
viability, T/C [8]: 77.9%
viability, T/C [9]: 49.9%
viability, T/C [10]: 21.3%
viability, T/C (second compound 0.0316 µM, first compound 0.000316 µM): 108%
viability, T/C (second compound 0.0316 µM, first compound 0.001 µM): 99.9%
viability, T/C [13]: 91.7%
viability, T/C [14]: 77.5%
viability, T/C [15]: 44.2%
viability, T/C [16]: 20.4%
viability, T/C (second compound 0.1 µM, first compound 0.000316 µM): 104%
viability, T/C (second compound 0.1 µM, first compound 0.001 µM): 102%
viability, T/C [19]: 97.4%
viability, T/C [20]: 85%
viability, T/C [21]: 52.7%
viability, T/C [22]: 19.8%
viability, T/C (second compound 0.316 µM, first compound 0.000316 µM): 116%
viability, T/C (second compound 0.316 µM, first compound 0.001 µM): 103%
viability, T/C [25]: 109%
viability, T/C [26]: 89.3%
viability, T/C [27]: 52.4%
viability, T/C [28]: 20.8%
viability, T/C (second compound 1 µM, first compound 0.000316 µM): 122%
viability, T/C (second compound 1 µM, first compound 0.001 µM): 115%
viability, T/C [31]: 111%
viability, T/C [32]: 84.5%
viability, T/C [33]: 56%
viability, T/C [34]: 22.7%

More lines, now with the values behind:

SMILES: C=CC(=O)Nc1cc(Nc2nccc(-c3cn(C)c4ccccc34)n2)c(OC)cc1N(C)CCN(C)C + C=CC(=O)N1CCN(c2nc(OCC3CCCN3C)nc3c(F)c(-c4nc(N)cc(C)c4C(F)(F)F)c(Cl)cc23)C(C)C1
IC50 (second compound 0.00316 µM): 940 nM
IC50 (second compound 0.01 µM): > 1000 nM
IC50 (second compound 0.0316 µM): > 1000 nM
IC50 (second compound 0.1 µM): 962 nM
IC50 (second compound 0.316 µM): > 1000 nM
IC50 (second compound 1 µM): 870 nM
viability, T/C [1]: 98.9%
viability, T/C [2]: 98.9%
viability, T/C [3]: 116%
viability, T/C [4]: 101%
viability, T/C [5]: 92.6%
viability, T/C [6]: 47.5%
viability, T/C [7]: 102%
viability, T/C [8]: 105%
viability, T/C [9]: 93%
viability, T/C [10]: 100%
viability, T/C [11]: 96.5%
viability, T/C [12]: 54.4%
viability, T/C [13]: 104%
viability, T/C [14]: 103%
viability, T/C [15]: 104%
viability, T/C [16]: 107%
viability, T/C [17]: 93.6%
viability, T/C [18]: 58.4%
viability, T/C [19]: 105%
viability, T/C [20]: 105%
viability, T/C [21]: 117%
viability, T/C [22]: 106%
viability, T/C [23]: 98%
viability, T/C [24]: 48.2%
viability, T/C [25]: 114%
viability, T/C [26]: 112%
viability, T/C [27]: 116%
viability, T/C [28]: 108%
viability, T/C [29]: 93.8%
viability, T/C [30]: 53.7%
viability, T/C [31]: 118%
viability, T/C [32]: 120%
viability, T/C [33]: 124%
viability, T/C [34]: 114%
viability, T/C [35]: 97.7%
viability, T/C [36]: 43.4%

SMILES: CC(Nc1ccc2c(c1)OCCn1cc(N3C(=O)OCC3C(F)F)nc1-2)C(N)=O (stereo not given) + C=CC(=O)N1CCN(c2nc(OCC3CCCN3C)nc3c(F)c(-c4nc(N)cc(C)c4C(F)(F)F)c(Cl)cc23)C(C)C1
IC50 (second compound 0.00316 µM): > 10000 nM
IC50 (second compound 0.01 µM): > 10000 nM
IC50 (second compound 0.0316 µM): > 10000 nM
IC50 (second compound 0.1 µM): > 10000 nM
IC50 (second compound 0.316 µM): > 10000 nM
IC50 (second compound 1 µM): > 10000 nM
viability, T/C [3]: 106%
viability, T/C [4]: 91.2%
viability, T/C [5]: 98.7%
viability, T/C [6]: 93.9%
viability, T/C [37]: 94.8%
viability, T/C [38]: 72.8%
viability, T/C [9]: 94.7%
viability, T/C [10]: 103%
viability, T/C [11]: 93.9%
viability, T/C [12]: 87.6%
viability, T/C [39]: 95.6%
viability, T/C [40]: 71.4%
viability, T/C [15]: 108%
viability, T/C [16]: 103%
viability, T/C [17]: 98.7%
viability, T/C [18]: 91.9%
viability, T/C [41]: 81.8%
viability, T/C [42]: 75.7%
viability, T/C [21]: 99.8%
viability, T/C [22]: 105%
viability, T/C [23]: 107%
viability, T/C [24]: 99.1%
viability, T/C [43]: 87.9%
viability, T/C [44]: 74.5%
viability, T/C [27]: 118%
viability, T/C [28]: 120%
viability, T/C [29]: 108%
viability, T/C [30]: 97%
viability, T/C [45]: 94.4%
viability, T/C [46]: 70.1%
viability, T/C [33]: 113%
viability, T/C [34]: 124%
viability, T/C [35]: 102%
viability, T/C [36]: 111%
viability, T/C [47]: 90.1%
viability, T/C [48]: 71.4%

SMILES: O=C(c1ccc(F)c(F)c1Nc1ccc(I)cc1F)N1CC(O)([C@@H]2CCCCN2)C1 + C=CC(=O)N1CCN(c2nc(OCC3CCCN3C)nc3c(F)c(-c4nc(N)cc(C)c4C(F)(F)F)c(Cl)cc23)C(C)C1
IC50 (second compound 0.00316 µM): 5.18 nM
IC50 (second compound 0.01 µM): 3.43 nM
IC50 (second compound 0.0316 µM): 4.61 nM
IC50 (second compound 0.1 µM): 5.75 nM
IC50 (second compound 0.316 µM): 6.85 nM
IC50 (second compound 1 µM): 8.71 nM
viability, T/C [1]: 60.9%
viability, T/C [2]: 33.6%
viability, T/C [3]: 28.4%
viability, T/C [4]: 21.8%
viability, T/C [5]: 18.9%
viability, T/C [6]: 16.4%
viability, T/C [7]: 50.9%
viability, T/C [8]: 38.3%
viability, T/C [9]: 26.4%
viability, T/C [10]: 19.6%
viability, T/C [11]: 15.8%
viability, T/C [12]: 16%
viability, T/C [13]: 56.3%
viability, T/C [14]: 38%
viability, T/C [15]: 23.6%
viability, T/C [16]: 23.6%
viability, T/C [17]: 19.1%
viability, T/C [18]: 15.3%
viability, T/C [19]: 60.6%
viability, T/C [20]: 39.7%
viability, T/C [21]: 28%
viability, T/C [22]: 21.5%
viability, T/C [23]: 17.6%
viability, T/C [24]: 14%
viability, T/C [25]: 58.1%
viability, T/C [26]: 46.9%
viability, T/C [27]: 33.4%
viability, T/C [28]: 25.4%
viability, T/C [29]: 19.1%
viability, T/C [30]: 14.4%
viability, T/C [31]: 73.2%
viability, T/C [32]: 40.8%
viability, T/C [33]: 38.6%
viability, T/C [34]: 23.5%
viability, T/C [35]: 18.1%
viability, T/C [36]: 14.5%
